The record followed here is patent US8881823B2, “Environmentally friendly low temperature breaker systems and related methods” (Halliburton Energy Services, Inc., priority 2011, dated 2014).

Read-outs that look alike come from different tables or passages of the source.

Data set [1] can be described thus: Calcite dissolving capacity of breaker systems. The class given is physicochemical. Particulars: 2.5 g BARACARB 5 in 50 mL test fluid, one hour. The method, then:
The calcite dissolving capacity of each breaker system was determined in the following manner. A known amount of a technical grade calcium carbonate (commercially available from Halliburton under the tradename “BARACARB 5”) was dried in an oven for 2 hours. […] The solution was subsequently filtered with a 1 micron fiber glass filter paper.

Data set [2] is described as follows: Initial and over time miscibility and pH in potassium formate brines. It counts as physicochemical. Particulars: for After Static Aging: overnight 150° F.; for pH Final: static 16 hrs @ 150° F. Here is the method: Completion breaker solutions were to be tested at 5%, 10%, and 20% by volume concentrations in each of the brines. The initial miscibility and the miscibility after static aging overnight at 150° F. were observed. Also, the pH of the final mixes was measured. The different concentrations of the breaker solutions were prepared with fresh water and filtered through a 1.6 μm glass fiber filter prior to testing.
The tests were run by adding the appropriate volume of the test breaker (5%, 10%, or 20% by volume) to the volume of the test brine needed to total 100 ml in a 4 ounce jar, sealing it, and swirling to mix the components. Observation was noted of the compatibility of the components.

Data set [3] can be described thus: Miscibility and pH of breaker systems in fresh water. It counts as physicochemical. The following applies: breaker system in fresh water, 150° F. for 16 hours. The method, then: Several chelating agents and acids (breaker systems) were tested for their calcium carbonate dissolving capacity and miscibility in fresh water. Tests of the breaker systems were performed by adding a known volume of breaker system to a volume of brine needed to fill 100 ml in a jar. The jars were then sealed and swirled to mix the components. Samples containing 5%, 10%, or 20% v/v of chelating agents and acids were prepared. The jars were then placed in a static oven at 150° F. for 16 hours. Afterwards, miscibility of the components was observed and the pH of each mixture was tabulated.

Data set [4] in a line: Biodegradability, OECD 301 D Closed Bottle Test. An excerpt:
The same protocol was used to test EDTA (“DISSOLVINE AM3-40” available from AkzoNobel Corporate) and sodium acetate.

The nature of data set [5]: Chemical oxygen demand (COD) test. It counts as physicochemical. The text has this:
Table 2 compares the biodegradability of GLDA and EDTA and summarizes chemical oxygen demand (COD) tests which indirectly measures the amount of organic compounds in water.

Data set [6] is described as follows: Compatibility and dissolution ability in potassium formate brine. The class given is physicochemical. Here is the method:
In this Example, the compatibility and dissolution ability of various breaker systems with formate brine were evaluated. […] For each sample a 20% v/v breaker sample was prepared in three different concentrations of potassium formate brine (11 ppg, 12 ppg, and 13 ppg).
To determine the compatibility of each breaker with the potassium formate brine, each sample was checked for the formation of formate salts. This precipitation was indicative of an incompatibility of the breaker system with the formate brine. Samples in which precipitation was observed are noted with an asterisk (*).
The dissolution ability of the breaker systems was also tested in the various concentration of formate brine. […] The jars were then dried in an 90° F. oven for 16 hours. After the elapsed time, the amount of carbonate that remained was weighed and tabulated. The difference in weight represented the amount of carbonate that was dissolved by the breaker system and/or precipitated out as a result of being incompatible with the formate brine.

[7] abbreviates: 5% by volume, potassium formate brine 11.0 lb/gal.
Where [8] appears, read: 5% by volume, potassium formate brine 12.0 lb/gal.
Where [9] appears, read: 5% by volume, potassium formate brine 13.0 lb/gal.
Where [10] appears, read: 10% by volume, potassium formate brine 11.0 lb/gal.
Where [11] appears, read: 10% by volume, potassium formate brine 12.0 lb/gal.
Setting [12] is: 10% by volume, potassium formate brine 13.0 lb/gal.
Where [13] appears, read: 15% (so in the source), potassium formate brine 13.0 lb/gal.
Setting [14] is: 20% by volume, potassium formate brine 11.0 lb/gal.
The mark [15] stands for this setting: 20% by volume, potassium formate brine 12.0 lb/gal.

Take `N.N.O=C(O)CN(CCN(CC(=O)O)CC(=O)O)CC(=O)O` [EDTA ammonium salt, reference compound]: the “% Carbonate Complexed or Dissolved” value in data set [1] came out at 38.4%. Moreover, the “Final Weight of BARACARB 5, g” value in data set [1] was 1.54 g. The “Initial Observation” value is “Clear, totally soluble” in data set [2] (setting [7]); “Clear, totally soluble” in data set [2] (setting [8]); “Clear, totally soluble” in data set [2] (setting [9]); “Clear, totally soluble” in data set [2] (setting [10]); “Clear, totally soluble” in data set [2] (setting [11]); “Clear, totally soluble” in data set [2] (setting [12]). The “Initial Observation” value is on record as “Clear, totally soluble” in data set [2] (setting [13]); “Clear, totally soluble” in data set [2] (setting [14]); “Clear, totally soluble” in data set [2] (setting [15]). Moreover, the “After Static Aging” value in data set [2] (setting [7]) is given as “Clear, totally soluble †”; in data set [2] (setting [8]) it was “Clear, totally soluble †”; in data set [2] (setting [9]), “Clear, totally soluble †”; in data set [2] (setting [10]), “Clear, totally soluble †”; in data set [2] (setting [11]), “Clear, totally soluble †”; in data set [2] (setting [12]), “Clear, totally soluble †”. Besides, the “After Static Aging” value in data set [2] (setting [13]) is on record as “Clear, totally soluble †”; in data set [2] (setting [14]), “Clear, totally soluble †”; in data set [2] (setting [15]), “Clear, totally soluble †”. The “pH Final” value in data set [2] (setting [7]) was determined as 9.6; in data set [2] (setting [8]), 10.8; in data set [2] (setting [9]), 11.4; in data set [2] (setting [10]), 8.6; in data set [2] (setting [11]), 9.8; in data set [2] (setting [12]), 10.7. Moreover, the entries for the “pH Final” value in data set [2] (setting [13]), in data set [2] (setting [14]) and in data set [2] (setting [15]) were 9.9, 7.0 and 8.0, respectively. In data set [3], this compound returned a pH of 4.77.
In the case of `O=C(O)CN(CCN(CC(=O)O)CC(=O)O)CC(=O)O` [EDTA, reference compound], the “biodegradability (in words)” value in data set [4] (OECD 301D protocol) is on record as “do not meet this standard”. Further, the Biodegradability entry in data set [4] (Table 2) is recorded as “Difficult”. The same compound gave a COD in data set [5] of around 315 mg/g. Also, the “compatibility with the formate brine” value in data set [6] (20% v/v breaker, 11, 12 and 13 ppg potassium formate, precipitation of formate salts = incompatible) is on record as “only compatible with the formate brine at the lowest tested concentration”. Besides, the “% Dissolved or precipitated out” value in data set [6] (20% v/v breaker, 11 ppg Potassium Formate) was 92%; in data set [6] (20% v/v breaker, 12 ppg Potassium Formate) it was 89%; in data set [6] (20% v/v breaker, 13 ppg Potassium Formate), 56%. The “Amount of carbonate remaining” value in data set [6] (20% v/v breaker, 11 ppg Potassium Formate, 2.5 g calcium carbonate, 16 hours, * = precipitation of formate salts) came to 0.21 g. The “Amount of carbonate remaining, g” value is recorded as 0.28* g in data set [6] (20% v/v breaker, 12 ppg Potassium Formate, 2.5 g calcium carbonate, 16 hours, * = precipitation of formate salts) and 1.10* g in data set [6] (20% v/v breaker, 13 ppg Potassium Formate, 2.5 g calcium carbonate, 16 hours, * = precipitation of formate salts).
Consider `O=C(O)CN(CCOCCOCCN(CC(=O)O)CC(=O)O)CC(=O)O` [EGTA], for which, in data set [1], the “% Carbonate Complexed or Dissolved” value turned out to be 9.28% and the “Final Weight of BARACARB 5, g” value came out at 2.32 g. Moreover, the pH in data set [3] is listed as 11.
As for `O=C(O)CN(CCO)CCN(CC(=O)O)CC(=O)O` [HEDTA], the “biodegradability (in words)” value in data set [4] is “do not meet this standard”.
For `O=C([O-])CC(NC(CC(=O)[O-])C(=O)[O-])C(=O)[O-].[Na+].[Na+].[Na+].[Na+]` (stereo not drawn) [Iminodisuccinate, sodium salt], in data set [1], the “% Carbonate Complexed or Dissolved” value came to 5.2% and the “Final Weight of BARACARB 5, g” value stood at 2.37 g. The same compound had a pH in data set [3] of 11.3.
On to `Cl.NC(N)=O` [Synthetic acid (HCl salt of urea), HCl salt of urea], for which the figures for the “After Static Aging” value in data set [2] (setting [7]), in data set [2] (setting [8]) and in data set [2] (setting [9]) were “Slight haze”, “Very slight separation” and “Hazy”, respectively. For the same compound, the “pH Final” value came out at 9.9 in data set [2] (setting [7]); 11.4 in data set [2] (setting [8]); 12.2 in data set [2] (setting [9]); 7.0 in data set [2] (setting [10]); 9.4 in data set [2] (setting [11]); 11.0 in data set [2] (setting [12]). For the same compound, the “pH Final” value is given as 6.0 in data set [2] (setting [14]); 7.0 in data set [2] (setting [15]); 7.5 in data set [2] (20% by volume, potassium formate brine 13.0 lb/gal). For the same compound, in data set [2] (setting [8]), the “Initial Observation” value is given as “Clear, totally soluble”. Further, in data set [2] (tested concentrations, 11.0-13.0 lb/gal brines), the “solubility / miscibility in the potassium formate brines” value was “not soluble in the brines, but dispersed evenly”. In data set [3], the pH came to 0.88.
Turning to `CC(=O)[O-].[Na+]` [sodium acetate], the “biodegradability (in words)” value in data set [4] (OECD 301D protocol) is recorded as “readily biodegradable”.
